Data from patent US6020345A, “Pyridin-2-yl-methylamine derivatives, method of preparing and application as medicine” (Pierre Fabre Medicament, priority 1996, dated 2000).
Like-named read-outs stand apart in the source and are kept apart here.

Columns and labels:
[1] = target: T1, D2 dopaminergic receptors (Rattus norvegicus, UniProt P61169); test: In vitro affinity for the D2 dopaminergic receptors by displacement of (^3 H) YM-09151-2; type: binding
T1 construct: rat striatum is used; from tissue; host or cells: rat striatum
T1 sequence (P61169 whole entry): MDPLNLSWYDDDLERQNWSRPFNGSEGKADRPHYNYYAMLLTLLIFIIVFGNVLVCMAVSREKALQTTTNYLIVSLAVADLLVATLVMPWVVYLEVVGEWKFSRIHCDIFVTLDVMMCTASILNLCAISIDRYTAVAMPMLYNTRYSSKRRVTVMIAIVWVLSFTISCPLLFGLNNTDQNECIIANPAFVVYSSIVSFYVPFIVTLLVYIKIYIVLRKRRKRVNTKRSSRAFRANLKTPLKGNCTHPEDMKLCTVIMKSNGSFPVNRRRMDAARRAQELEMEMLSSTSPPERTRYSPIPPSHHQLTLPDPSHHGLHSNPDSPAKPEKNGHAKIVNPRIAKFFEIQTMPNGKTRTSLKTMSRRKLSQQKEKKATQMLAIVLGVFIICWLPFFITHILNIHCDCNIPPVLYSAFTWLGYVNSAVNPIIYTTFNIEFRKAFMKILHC
Method: 2-Measurement of the affinity of the compounds of the invention for the D2 receptors
The in vitro affinity of the compounds of the invention for the D2 dopaminergic receptors was determined by measuring the displacement of (^3 H) YM-09151-2 (NET-1004 70-87 Ci/mmol). The study of binding to the D2 receptor is carried out as described by Niznik (Naunyn-Schmiedeberg's Arch. Pharmacol. Methods, 1985, 329, 333-38). For these experiments, rat striatum is used. After thawing the brain in 50 mmol Tris-HCl buffer, pH=7.40 at 25° C., the striatum is collected and homogenized in 40 volumes of buffer maintained at 4° C. The homogenate is centrifuged at 20,000 g for 10 minutes, the centrifugation pellet is suspended in the same volume of buffer and again centrifuged. The final pellet is suspended in cold 50 mmol Tris-HCl reaction buffer, pH=7.40 at 25° C. containing 120 mmol of NaCl and 5 mmol of KCl. The final concentration of tissue in the incubation medium is 2 mg/tube. The reaction tubes contain 0.20 ml of [^3 H]YM-09151-2 (0.05 mmol final), 0.20 ml of product to be tested 6-7 concentrations and 1.60 ml of tissue. Nonspecific binding is defined using 1 mmol of (+)-Butaclamol. The reaction tubes are incubated at 23° C. for 60 minutes and then their content is rapidly filtered under vacuum on Whatman GF/B filters, the tubes are rinsed twice with 5 ml of 50 mmol Tris-HCl buffer, pH=7.40 at 25° C. The radioactivity collected on the filter is analyzed by liquid scintillation by adding 4 ml of scintillation fluid (Emulsifier Safe, Packard). All the experiments are carried out in triplicate.
(§1) The inhibition constants (Ki) of the products of the invention are estimated from displacement experiments using the nonlinear regression program RADLIG version 4 from EBDA (Equilibrium Binding Data Analysis) (Biosoft, Cambridge, UK, McPherson, 1985). […] The pKi (-logKi) values are given in the form of the mean ±SEM of at least 3 experiments.

5-HT1A receptors [2] = target: T2, 5-HT1A receptors (Rattus norvegicus, UniProt P19327); test: In vivo 5-HT1A agonist activity: lower lip retraction (LLR) in rats after oral administration; parameters: Sprague Dawley male rats; from tissue; host or cells: whole animal, Sprague Dawley male rats (central nervous system); species or system rat (Sprague Dawley male); conditions: 1 h
T2 sequence (P19327 1-422): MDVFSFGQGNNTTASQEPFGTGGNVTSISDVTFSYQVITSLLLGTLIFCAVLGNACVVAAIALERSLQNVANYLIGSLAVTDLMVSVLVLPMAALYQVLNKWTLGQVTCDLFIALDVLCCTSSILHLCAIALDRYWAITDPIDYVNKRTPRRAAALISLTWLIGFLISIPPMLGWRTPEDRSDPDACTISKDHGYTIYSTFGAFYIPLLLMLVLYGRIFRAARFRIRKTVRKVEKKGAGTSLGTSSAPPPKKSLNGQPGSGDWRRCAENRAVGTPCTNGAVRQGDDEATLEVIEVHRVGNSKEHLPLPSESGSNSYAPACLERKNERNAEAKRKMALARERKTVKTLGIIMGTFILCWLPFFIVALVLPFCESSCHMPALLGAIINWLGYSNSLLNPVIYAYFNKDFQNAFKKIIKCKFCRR
Source text: 3-Evaluation of the agonist activity of the 5-HT1A receptors of the compounds of the invention in vivo
Sprague Dawley male rats (ICO: OFAD [IOPS], Iffa Credo, France) weighing 160-180 g on their arrival and 180-200 g at the beginning of the tests are used. The animals are quarantined for 4 to 8 days with free access to standard laboratory food before their use in the experiments. Animals are housed individually in plastic cages on a support, (28 cm×21 cm×18 cm) with a floor having a wire mesh covering (RC Iffa Credo), 24 hours before the tests. Water filtered on 0.22 μm is available ad libitum by means of an automatic dispenser. The quarantine area and the experimentation laboratory are air-conditioned (temperature: 22±1° C.; relative humidity: 55±5%) and illuminated from 07:00 to 19:00. All the rats are treated in accordance with laboratory animal ethics (Guide for the Care and Use of Laboratory Animals, U.S. Department of Agriculture. Public Health Service. National Institutes of Health publication No. 85-23, Revised 1985), and the protocol (No. 15) is carried out in accordance with the recommendations of the local ethics committee on animal research.
The methods used are essentially identical to those described previously (Drug. Dev. Res. 1992, 26, 21-48; Eur. J. Pharmacol. 1995, 281, 219-28).
The behavior of the animal is observed for a period of 10 minutes each, centred on t60 minutes, after administration by the oral route. Four animals are observed individually during the 10 minute period (from t55 to t65); the 4 rats are observed in turn, every 15 seconds, duration of observation 10 seconds per animal. During each of these observation periods, the presence (1) or absence (0) of lower lip retraction (LLR) in the animal is noted. […] This cycle is repeated 10 times over a period of 10 minutes; thus, the frequency of a behavior may vary from 0 to 10 for each observation period. Each day, two animals from each group receive the same dose of the same product.
The products are dissolved in distilled water or suspended in an aqueous solution of Tween 80 (2 drops/10 ml of distilled water). The products are administered in a volume of 10 ml/kg and the doses are expressed in basal weight. The order of administration of the products and of the doses is randomized.

5-HT1A receptors [3] = target: T2, 5-HT1A receptors; test: In vitro affinity for the 5-HT1A receptors by displacement of (^3 H)8-OH-DPAT; type: binding; parameters: rat cerebral cortices are used; from tissue; host or cells: rat cerebral cortex; conditions: for affinity for the 5-HT1A receptors (in words): in vitro; for pKi 5-HT1A: mean of at least 3 experiments, rat cerebral cortex, (^3 H)8-OH-DPAT; for 5-HT1A /D2 Selectivity: ratio of affinity constants (Ki) D2 /(Ki) 5-HT1A
Method: 1-Measurement of the affinity of the compounds of the invention for the 5-HT1A receptors
The study of binding to the 5-HT1A receptor was carried out as described by Sleight and Peroutka (Naunyn-Schmiedeberg's Arch. Pharmaco. 1991, 343, 106-16). For these experiments, rat cerebral cortices are used. After thawing the brain in 50 mmol Tris-HCl buffer, pH=7.40 at 25° C., the cerebral cortex is removed and homogenized in 20 volumes of buffer maintained at 4° C. The homogenate is centrifuged at 39,000 g for 10 minutes, the centrifugation pellet is suspended in the same volume of buffer and again centrifuged. After suspending again under the same conditions, the homogenate is incubated for 10 minutes at 37° C. and then centrifuged again. The final pellet is suspended in cold 50 mmol Tris-HCl reaction buffer, pH=7.40 at 25° C. containing 10 mmol of pargyline, 4 mmol of CaCl2 and 0.10% of ascorbic acid. The final concentration of tissue in the incubation medium is 10 mg/tube.
Nonspecific binding is defined using 10 mmol of 5-HT. The reaction tubes are incubated at 23° C. for 30 minutes and then their content is rapidly filtered under vacuum on Whatman GF/B filters, the tubes are rinsed twice with 5 ml of 50 mmol Tris-HCl buffer, pH=7.4 at 25° C. The radioactivity collected on the filter is analyzed by liquid scintillation by adding 4 ml of scintillation fluid (Emulsifier Safe, Packard). All the experiments are carried out in triplicate.
as §1

[4] = mean of at least 3 experiments, rat striatum, (^3 H)YM-09151-2
[5] = po, read-out: LLR p.o (60 minutes) ED50
[6] = read-out: LLR p.o (60 minutes) ED50, oral, observed t55 to t65 minutes
[7] = mean of at least 3 experiments, rat striatum, (^3 H)YM-09151-2, read-out: pKi D2 (converted)

| pKi D2 [1, 4] | ED50 (5-HT1A receptors [2]; [6]) [mg/kg] | pKi 5-HT1A (5-HT1A receptors [3]) | 5-HT1A /D2 Selectivity (5-HT1A receptors [3]) | Ki [1, 7] [nM] | Ki (5-HT1A receptors [3]; read-out: pKi 5-HT1A (converted)) [nM] | Compound | ED50 (5-HT1A receptors [2]; [5]) [mg/kg] | affinity for the 5-HT1A receptors (in words) (5-HT1A receptors [3]) | Ki [1] [nM] |
| --- | --- | --- | --- | --- | --- | --- | --- | --- | --- |
| 6.40 | 0.31 | 9.67 | 1862 |  |  | CNc1cccc(CNCC2(F)CCN(C(=O)c3ccc(Cl)c(Cl)c3)CC2)n1 [I-11] |  |  |  |
| 6.56 | 0.31 | 9.92 | 2291 |  |  | CN(C)c1cccc(CNCC2(F)CCN(C(=O)c3ccc(F)c(Cl)c3)CC2)n1 [I-13, (3-chloro-4-fluoro-phenyl)-(4-fluoro-4-{[(6-dimethylaminopyridin-2-yl-methyl)amino]methyl}-piperidin-1-yl)methanone] |  |  |  |
| 6.48 | 0.31 | 9.61 | 1349 |  |  | CN(C)c1cccc(CNCC2(F)CCN(C(=O)c3ccc(Cl)c(Cl)c3)CC2)n1 [I-14, (3,4-dichlorophenyl)-(4-fluoro-4-{[(6-dimethylaminopyridin-2-yl-methyl)amino]methyl}piperidin-1-yl)-methanone] |  |  |  |
| 5.65 | 0.31 | 9.55 | 7942 |  |  | O=C(c1ccc(F)c(Cl)c1)N1CCC(F)(CNCc2cccc(-c3ccco3)n2)CC1 [I-32, (3-chloro-4-fluorophenyl)-(4-fluoro-4-{[(6-furan-2-yl-pyridin-2-yl-methyl)amino]methyl}-piperidin-1-yl)methanone] |  |  |  |
|  | 0.08 |  | 7414 | 1020 | 0.138 | O=C(c1ccc(F)c(Cl)c1)N1CCC(F)(CNCc2cccc(N3CCC3)n2)CC1 [I-56] |  |  |  |
|  | 0.31 | 9.73 | 1259 | 234 |  | CCNc1cccc(CNCC2(F)CCN(C(=O)c3ccc(F)c(Cl)c3)CC2)n1 [I-58] |  |  |  |
|  | 0.31 | 9.69 | 5011 | 1020 |  | CNc1cccc(CNCC2(F)CCN(C(=O)c3ccc(F)c(Cl)c3)CC2)n1 [I-59] |  |  |  |
|  | 0.08 | 9.50 | 1906 | 603 |  | Cc1ccc(CNCC2(F)CCN(C(=O)c3ccc(F)c(Cl)c3)CC2)nc1N(C)C [I-61, (3-chloro-4-fluoro-phenyl)-(4-fluoro-4-{[(5-methyl-6-dimethylaminopyridin-2-yl-methyl)amino]-methyl}piperidin-1-yl)methanone] |  |  |  |
|  | 0.31 | 9.34 | 16594 | 7590 |  | O=C(c1ccc(F)c(Cl)c1)N1CCC(F)(CNCc2cccc(-c3cc[nH]n3)n2)CC1 [I-62] |  |  |  |
|  | 0.31 | 9.24 | > 10000 | > 10000 |  | Cc1ccc(CNCC2(F)CCN(C(=O)c3ccc(Cl)c(Cl)c3)CC2)nc1 [I-65] |  |  |  |

| Compound | pKi D2 [1, 4] | ED50 (5-HT1A receptors [2]; [6]) [mg/kg] | pKi 5-HT1A (5-HT1A receptors [3]) | 5-HT1A /D2 Selectivity (5-HT1A receptors [3]) | Ki [1, 7] [nM] | Ki (5-HT1A receptors [3]; read-out: pKi 5-HT1A (converted)) [nM] | ED50 (5-HT1A receptors [2]; [5]) [mg/kg] | affinity for the 5-HT1A receptors (in words) (5-HT1A receptors [3]) | Ki [1] [nM] |
| --- | --- | --- | --- | --- | --- | --- | --- | --- | --- |
| CCCN(CCC)C1CCc2cccc(O)c2C1 (stereo not shown) [8-OH-DPAT, 7-dipropylamino-5,6,7,8-tetrahydronaphthalen-1-ol, reference compound] | 6.26 |  |  |  |  |  | 5 | high affinity for the 5-HT1A receptors |  |
| O=C1CC2(CCCC2)CC(=O)N1CCCCN1CCN(c2ncccn2)CC1 [Buspirone, reference compound] |  | 20 |  |  |  |  |  | high affinity for the 5-HT1A receptors |  |
| CNc1nc(CNCC2(F)CCN(C(=O)c3ccc(F)c(Cl)c3)CC2)ccc1C [I-55, (3-chloro-4-fluoro-phenyl)-(4-fluoro-4-{[(5-methyl-6-methylaminopyridin-2-ylmethyl)amino]-methyl}piperidin-1-yl)methanone] |  |  | 10.12 | 16982 |  |  | 0.08 |  | 1290 |
